Assay results from ChEMBL document CHEMBL5665443, “Enzyme Inhibitor Single Concentration assay results for EUbOPEN Chemogenomics Library” (2024).

Tests used:
[1] = target: Endonuclease 8-like 1 (Homo sapiens) (UniProt Q96FI4); conditions: Hit No;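 also: fluorescence at 594 nm from quenched duplex DNA oligonucleotides released by NEIL1 cleavage and strand separation, reported as reduction of this enzyme activity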
Description: Inhibition of NEIL1 by quantifying inhibition of NEIL1-mediated cleavage and dissociation of quenched duplex DNA oligonucleotides, measured as fluorescence at 594 nm.

[2] = target: T1, Endonuclease III-like protein 1 (Homo sapiens) (UniProt P78549); conditions: Compound Concentration 10.0 uM, Hit No;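 also: enzyme assay tracking NTHL1 cutting and release of a quenched double-stranded DNA oligo substrate, read as fluorescence at 594 nm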
T1 sequence (whole entry): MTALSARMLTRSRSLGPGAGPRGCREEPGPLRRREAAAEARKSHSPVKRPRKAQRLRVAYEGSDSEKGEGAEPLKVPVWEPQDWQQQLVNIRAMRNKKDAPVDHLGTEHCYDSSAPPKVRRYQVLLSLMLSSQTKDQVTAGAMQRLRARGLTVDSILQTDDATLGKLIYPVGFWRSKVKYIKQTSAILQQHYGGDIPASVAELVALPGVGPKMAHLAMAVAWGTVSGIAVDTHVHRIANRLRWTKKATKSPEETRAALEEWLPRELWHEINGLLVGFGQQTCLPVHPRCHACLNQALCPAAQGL
Description: Inhibition of NTHL1 by quantifying inhibition of NTHL1-mediated cleavage and dissociation of quenched duplex DNA oligonucleotides, measured as fluorescence at 594 nm.

[3] = target: N-glycosylase/DNA lyase (Homo sapiens) (UniProt O15527); conditions: Hit No;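 also: OGG1 cleavage of a quenched duplex DNA oligonucleotide, coupled to APE1 for strand incision, read as fluorescence at 594 nm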
Chain of N-glycosylase/DNA lyase (Homo sapiens) (O15527 whole entry): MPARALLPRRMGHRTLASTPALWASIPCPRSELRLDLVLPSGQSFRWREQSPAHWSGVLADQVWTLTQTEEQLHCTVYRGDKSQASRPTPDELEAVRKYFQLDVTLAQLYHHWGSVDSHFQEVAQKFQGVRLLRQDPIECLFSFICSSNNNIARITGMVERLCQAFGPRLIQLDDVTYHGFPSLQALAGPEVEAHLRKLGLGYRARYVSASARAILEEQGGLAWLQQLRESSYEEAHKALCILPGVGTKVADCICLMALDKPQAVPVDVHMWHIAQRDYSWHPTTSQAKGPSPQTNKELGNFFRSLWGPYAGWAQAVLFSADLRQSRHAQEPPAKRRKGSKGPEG
Description: Inhibition of OGG1 by quantifying inhibition of OGG1-mediated cleavage and dissociation of quenched duplex DNA oligonucleotides, measured as fluorescence at 594 nm. To generate a functional strand incision and increase turn-over this assay is coupled to APE1.

[4] = target: G/T mismatch-specific thymine DNA glycosylase (Homo sapiens) (UniProt Q13569); conditions: Hit No;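 also: human TDG cleavage of quenched duplex DNA oligonucleotides coupled to APE1, strand release read as fluorescence at 594 nm, inhibition of TDG activity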
Chain of G/T mismatch-specific thymine DNA glycosylase (Homo sapiens) (Q13569 whole entry): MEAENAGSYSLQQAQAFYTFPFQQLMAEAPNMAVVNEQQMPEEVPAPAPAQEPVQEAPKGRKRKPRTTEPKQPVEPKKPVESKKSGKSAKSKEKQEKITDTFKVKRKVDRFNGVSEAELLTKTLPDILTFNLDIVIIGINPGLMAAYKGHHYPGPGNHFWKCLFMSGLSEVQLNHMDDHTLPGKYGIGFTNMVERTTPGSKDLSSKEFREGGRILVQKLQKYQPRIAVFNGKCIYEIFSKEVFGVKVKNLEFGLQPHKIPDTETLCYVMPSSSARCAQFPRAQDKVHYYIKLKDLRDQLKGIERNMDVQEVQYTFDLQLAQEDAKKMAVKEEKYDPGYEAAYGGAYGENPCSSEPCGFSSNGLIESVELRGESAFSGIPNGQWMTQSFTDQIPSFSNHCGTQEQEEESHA
Description: Inhibition of TDG by quantifying inhibition of TDG-mediated cleavage and dissociation of quenched duplex DNA oligonucleotides, measured as fluorescence at 594 nm. To generate a functional strand incision and increase turn-over this assay is coupled to APE1.

[5] = target: Uracil-DNA glycosylase (Homo sapiens) (UniProt P13051); conditions: Hit No;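 also: UNG excision on a quenched double-stranded DNA oligo probe, with APE1 added for strand incision and turnover, read as fluorescence at 594 nm as strands separate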
Chain of Uracil-DNA glycosylase (Homo sapiens) (P13051 whole entry): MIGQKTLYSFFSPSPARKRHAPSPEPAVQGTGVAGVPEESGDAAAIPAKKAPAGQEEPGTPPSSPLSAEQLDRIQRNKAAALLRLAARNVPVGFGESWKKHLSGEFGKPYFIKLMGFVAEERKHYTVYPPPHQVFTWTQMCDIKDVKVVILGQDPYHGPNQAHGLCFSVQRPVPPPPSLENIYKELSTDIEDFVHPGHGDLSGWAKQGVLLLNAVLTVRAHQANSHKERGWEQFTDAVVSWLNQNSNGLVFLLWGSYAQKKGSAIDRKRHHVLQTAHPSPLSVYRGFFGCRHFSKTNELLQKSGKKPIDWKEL
Description: Inhibition of UNG by quantifying inhibition of UNG-mediated cleavage and dissociation of quenched duplex DNA oligonucleotides, measured as fluorescence at 594 nm. To generate a functional strand incision and increase turn-over this assay is coupled to APE1.

[6] = target: T2, Endonuclease 8-like 2 (Homo sapiens) (UniProt Q969S2); conditions: Hit No;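 also: fluorescence at 594 nm reports NEIL2 cutting and release of a quenched double-stranded DNA oligo substrate, reduced signal read as inhibition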
T2 sequence (whole entry): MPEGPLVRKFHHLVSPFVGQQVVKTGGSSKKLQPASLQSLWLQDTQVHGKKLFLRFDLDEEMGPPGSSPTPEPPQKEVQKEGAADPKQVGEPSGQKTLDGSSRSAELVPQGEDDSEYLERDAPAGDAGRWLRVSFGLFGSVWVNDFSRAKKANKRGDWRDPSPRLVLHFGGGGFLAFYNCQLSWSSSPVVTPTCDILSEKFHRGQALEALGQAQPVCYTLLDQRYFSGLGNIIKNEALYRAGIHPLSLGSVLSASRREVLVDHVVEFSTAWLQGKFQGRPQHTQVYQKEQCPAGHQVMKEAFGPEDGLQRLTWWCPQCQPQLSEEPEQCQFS
Description: Inhibition of NEIL2 by quantifying inhibition of NEIL2-mediated cleavage and dissociation of quenched duplex DNA oligonucleotides, measured as fluorescence at 594 nm.

[7] = target: Methyl-CpG-binding domain protein 4 (Homo sapiens) (UniProt O95243); conditions: Hit No;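 also: MBD4 activity read as fluorescence at 594 nm from cleavage and release of a quenched duplex DNA oligonucleotide, with APE1 coupled to incise the strand and raise turnover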
Chain of Methyl-CpG-binding domain protein 4 (Homo sapiens) (O95243 whole entry, the tested form may be a part): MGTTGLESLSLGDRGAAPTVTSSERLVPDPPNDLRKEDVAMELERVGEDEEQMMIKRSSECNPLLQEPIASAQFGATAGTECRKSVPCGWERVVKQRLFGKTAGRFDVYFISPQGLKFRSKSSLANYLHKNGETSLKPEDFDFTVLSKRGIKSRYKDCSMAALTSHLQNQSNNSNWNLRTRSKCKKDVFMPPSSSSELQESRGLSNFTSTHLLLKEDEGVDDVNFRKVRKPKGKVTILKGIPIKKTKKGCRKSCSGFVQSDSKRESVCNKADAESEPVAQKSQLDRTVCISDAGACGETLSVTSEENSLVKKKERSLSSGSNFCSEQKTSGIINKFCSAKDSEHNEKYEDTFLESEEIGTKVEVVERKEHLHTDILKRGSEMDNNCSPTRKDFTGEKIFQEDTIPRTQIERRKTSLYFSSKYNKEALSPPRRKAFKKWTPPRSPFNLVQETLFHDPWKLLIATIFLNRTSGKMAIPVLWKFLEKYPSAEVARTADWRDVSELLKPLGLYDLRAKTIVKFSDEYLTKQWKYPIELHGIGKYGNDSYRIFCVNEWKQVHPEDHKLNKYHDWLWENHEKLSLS
Description: Inhibition of MBD4 by quantifying inhibition of MBD4-mediated cleavage and dissociation of quenched duplex DNA oligonucleotides, measured as fluorescence at 594 nm. To generate a functional strand incision and increase turn-over this assay is coupled to APE1.

[8] = target: T3, Single-strand selective monofunctional uracil DNA glycosylase (Homo sapiens) (UniProt Q53HV7); conditions: Hit No;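 also: enzymatic SMUG1 assay coupled with APE1, reading fluorescence at 594 nm released when a quenched double-stranded DNA oligonucleotide substrate is cleaved and separated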
T3 sequence (whole entry): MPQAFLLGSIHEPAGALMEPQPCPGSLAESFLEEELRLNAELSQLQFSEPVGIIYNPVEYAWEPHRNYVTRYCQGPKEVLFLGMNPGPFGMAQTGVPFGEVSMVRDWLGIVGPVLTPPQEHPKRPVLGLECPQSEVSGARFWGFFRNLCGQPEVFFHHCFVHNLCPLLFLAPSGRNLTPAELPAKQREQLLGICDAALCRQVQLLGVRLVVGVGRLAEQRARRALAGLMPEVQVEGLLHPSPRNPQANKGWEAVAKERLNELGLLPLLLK
Description: Inhibition of SMUG1 by quantifying inhibition of SMUG1-mediated cleavage and dissociation of quenched duplex DNA oligonucleotides, measured as fluorescence at 594 nm. To generate a functional strand incision and increase turn-over this assay is coupled to APE1.

Chain of Endonuclease 8-like 1 (Homo sapiens) (Q96FI4 whole entry): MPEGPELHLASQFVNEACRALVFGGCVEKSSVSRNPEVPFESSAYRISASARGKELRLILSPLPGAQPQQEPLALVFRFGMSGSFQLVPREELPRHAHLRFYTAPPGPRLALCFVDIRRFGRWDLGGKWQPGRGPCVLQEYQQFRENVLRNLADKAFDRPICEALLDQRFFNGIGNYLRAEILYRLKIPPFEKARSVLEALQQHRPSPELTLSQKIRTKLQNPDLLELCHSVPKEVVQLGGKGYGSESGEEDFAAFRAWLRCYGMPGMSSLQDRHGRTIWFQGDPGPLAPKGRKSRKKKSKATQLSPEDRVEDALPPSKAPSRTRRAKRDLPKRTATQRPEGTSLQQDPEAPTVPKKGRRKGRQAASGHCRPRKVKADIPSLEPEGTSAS

| Compound | inhibition ([1]; Compound Concentration 10.0 uM) | inhibition [2] | inhibition ([3]; Compound Concentration 10.0 uM) | inhibition ([4]; Compound Concentration 10.0 uM) | inhibition ([5]; Compound Concentration 10.0 uM) | inhibition ([6]; Compound Concentration 10.0 uM) | other results |
| --- | --- | --- | --- | --- | --- | --- | --- |
| CCCSc1nc(N[C@@H]2C[C@H]2c2ccc(F)c(F)c2)c2nnn([C@@H]3C[C@H](OCCO)[C@@H](O)[C@H]3O)c2n1 | -9.1% | 11.4% | -6.84% | -6.53% | -5.37% | – | – |
| CSCC[C@H](NC(=O)[C@H](Cc1ccc(O)cc1)NC(=O)[C@H](CCCCN)NC(=O)[C@@H](N)Cc1c[nH]c2ccccc12)C(=O)N[C@H](C(=O)N[C@H](CCSC)C(N)=O)C(C)C | 13.1% | 21.2% | – | – | -1.7% | -4.17% | – |
| CC(C)CNc1nc(N2CCN(CC3CCCOC3)CC2)ncc1C(=O)NCc1ccccc1 (centres undefined) | 2.23% | -1.08% | – | – | -1.17% | -0.0955% | – |
| CC(C)Oc1ccc(-c2nc(-c3cccc4c3CC[C@@H]4NCCO)no2)cc1C#N | -0.352% | 1.19% | – | -9.98% | – | 5.51% | – |
| N#Cc1c(N)nc(SCC(N)=O)c(C#N)c1-c1ccc(OCC2CC2)cc1 | 5.43% | 13.7% | 6.64% | – | – | 6.25% | – |
| Oc1c(CN2CCN(c3ccccn3)CC2)cc(Cl)c2cccnc12 | -9.54% | 39.3% | – | – | – | 7.5% | – |
| CN1CCN(c2nc3cc(C(F)(F)F)ccc3n3cccc23)CC1 | -1.92% | 16.2% | -6.12% | – | 0.522% | 16.2% | – |
| CCC[C@H]1CNCc2c1[nH]c(=O)c(C#N)c2N1CCC2(CC1)CC2 | 9.71% | – | 2.34% | 100% | 0.94% | -0.999% | inhibition ([7]; Compound Concentration 10.0 uM): 58.5%; inhibition ([8]; Compound Concentration 10.0 uM): 6.33% |
| CN1CCN(c2ccc(/C=C(\C#N)c3ccccc3Br)cc2)CC1 | -2.11% | – | 25.6% | 42.1% | 4.48% | -0.489% | inhibition ([7]; Compound Concentration 10.0 uM): 55.3%; inhibition ([8]; Compound Concentration 10.0 uM): 7.83% |
| CCc1nn2c(C)cc(C)nc2c1Cc1ccc(-c2nnc(C3CCNCC3)o2)cc1 | 6.02% | -9.8% | -9.16% | 1.84% | – | 2.26% | – |
| Cc1c(Oc2ccc(F)cc2)c(OC(C)C)nn1-c1ccc(C2CC2)cn1 | – | – | – | – | – | – | inhibition ([7]; Compound Concentration 1.0 uM): 59%; inhibition ([1]; Compound Concentration 1.0 uM): -5.44%; inhibition ([6]; Compound Concentration 1.0 uM): 1.55%; inhibition ([3]; Compound Concentration 1.0 uM): 10.1%; inhibition ([8]; Compound Concentration 1.0 uM): 8.77%; inhibition ([4]; Compound Concentration 1.0 uM): 52%; inhibition ([5]; Compound Concentration 1.0 uM): 0.0471% |
| CS(=O)(=O)NCC[C@H](NC(=O)c1cncc2c1cnn2-c1ccc(F)cc1)c1ccnc(S(C)(=O)=O)c1 | – | – | – | – | – | – | inhibition ([7]; Compound Concentration 1.0 uM): 64.7%; inhibition ([1]; Compound Concentration 1.0 uM): -4.23%; inhibition ([6]; Compound Concentration 1.0 uM): 0.0213%; inhibition ([3]; Compound Concentration 1.0 uM): -0.705%; inhibition ([8]; Compound Concentration 1.0 uM): 6.65%; inhibition ([4]; Compound Concentration 1.0 uM): 50.4%; inhibition ([5]; Compound Concentration 1.0 uM): -0.0979% |
| CN(C(=O)c1ccccc1)c1cc(N(C)c2ccc3c(c2)CCc2ccc(C(=O)NCCN4CCOCC4)cc2C3=O)ccc1F | -3.21% | 3.6% | -2.17% | – | – | -1.45% | – |
| COc1ccc(S(=O)(=O)N2C(=O)[C@@](c3ccccc3OC)(N3C[C@H](O)C[C@H]3C(=O)N(C)C)c3cc(Cl)ccc32)c(OC)c1 | 2.68% | -0.258% | – | – | 1.21% | -8.25% | – |
| CCc1nn(CCCN2CCN(c3cccc(Cl)c3)CC2)c(=O)n1CCOc1ccccc1 | -3.02% | 7.79% | – | – | -5.52% | -4.48% | – |
| CN(CCN1CCC(OC(=O)Nc2ccccc2-c2ccccc2)CC1)C(=O)c1ccc(CN2CCC(C(N)=O)CC2)cc1 | 3.95% | 15.8% | -7.57% | – | – | -7.72% | – |

| Compound | inhibition ([1]; Compound Concentration 10.0 uM) | inhibition [2] | inhibition ([3]; Compound Concentration 10.0 uM) | inhibition ([4]; Compound Concentration 10.0 uM) | inhibition ([5]; Compound Concentration 10.0 uM) | inhibition ([6]; Compound Concentration 10.0 uM) | other results |
| --- | --- | --- | --- | --- | --- | --- | --- |
| CCCCCCOc1cc2n(c(=O)n1)CCc1cc(OC)c(OC)cc1-2 | 1.64% | -4.39% | – | – | – | -5.45% | – |
| O=C(NCCN1CCOCC1)c1ccc2c(c1)C(=O)c1ccc(Nc3ccc(F)c(NC(=O)c4ccccc4)c3)cc1CC2 | -5.6% | 0.366% | – | – | – | -4.66% | – |
| Cc1ccc2[nH]c(CNCCCc3ccncc3)cc(=O)c2c1 | -2.56% | – | 5.93% | 35.6% | -0.701% | -5.59% | inhibition ([7]; Compound Concentration 10.0 uM): 56.8%; inhibition ([8]; Compound Concentration 10.0 uM): 7.47% |
| CC[C@H](CC(=O)O)n1c(=O)c2ncccc2n(Cc2cn(C)c3cc(C)cc(C)c23)c1=O | 0.164% | – | 0.279% | 46.4% | 0.131% | -5.34% | inhibition ([7]; Compound Concentration 10.0 uM): 56.1%; inhibition ([8]; Compound Concentration 10.0 uM): -8.88% |
| CN1C(=O)c2sccc2N(C)c2nc(Nc3ccc(S(N)(=O)=O)cc3)ncc21 | – | – | – | – | – | – | inhibition ([7]; Compound Concentration 1.0 uM): 27.4%; inhibition ([1]; Compound Concentration 1.0 uM): -7.66%; inhibition ([6]; Compound Concentration 1.0 uM): -6.76%; inhibition ([3]; Compound Concentration 1.0 uM): 5.53%; inhibition ([8]; Compound Concentration 1.0 uM): 9.9%; inhibition ([4]; Compound Concentration 1.0 uM): 40.8%; inhibition ([5]; Compound Concentration 1.0 uM): -4.58% |
| CCOc1ccc(-n2c([C@@H](C)N(Cc3cccnc3)C(=O)Cc3ccc(F)c(C(F)(F)F)c3)nc3ncccc3c2=O)cc1 | 6.83% | 5.52% | – | – | -5.43% | -4.17% | – |
| CCC(F)(F)c1cc(N2CCC(S(C)(=O)=O)CC2)nc2sc(C(N)=O)c(N)c12 | -3.46% | – | -8.21% | 39.1% | 3.95% | -1.2% | inhibition ([7]; Compound Concentration 10.0 uM): 38.2%; inhibition ([8]; Compound Concentration 10.0 uM): 8.86% |
| COc1ccc2cc(OCC3(C(=O)O)CN(C(=O)c4ccc(F)cc4)C3)ccc2c1 | – | – | – | – | – | – | inhibition ([7]; Compound Concentration 1.0 uM): 76.6%; inhibition ([1]; Compound Concentration 1.0 uM): 0.467%; inhibition ([6]; Compound Concentration 1.0 uM): -2.53%; inhibition ([3]; Compound Concentration 1.0 uM): -4.88%; inhibition ([8]; Compound Concentration 1.0 uM): 4.5%; inhibition ([4]; Compound Concentration 1.0 uM): 50.2%; inhibition ([5]; Compound Concentration 1.0 uM): -0.296% |
| O=C(Nc1c(-c2cccs2)nc2ccc(Cl)cn12)c1ccc(Cl)cc1 | 0.454% | 13.8% | -9.75% | – | -4.66% | 6.02% | – |
| CCCC(=O)C1(c2ccccc2)CCN(C(=O)[C@@H](Cc2ccc(OC)cc2)NC(=O)[C@@H](N)Cc2cncn2C)CC1 | 0.454% | -2.73% | -8.78% | – | -7.56% | -1.37% | – |
| C[C@@H](c1cccc(C#N)c1)n1cc(Cl)cc(C(N)=O)c1=N | -4.99% | – | 1.26% | 46.5% | 3.37% | 12% | inhibition ([7]; Compound Concentration 10.0 uM): 67%; inhibition ([8]; Compound Concentration 10.0 uM): 9.26% |
| O=c1[nH]c(=O)c2nc3ccccc3nc2[nH]1 | 4.1% | 14.4% | – | – | – | 5.26% | – |
| O=C(NCCN1CCC(n2c(=O)[nH]c3cc(Cl)ccc32)CC1)c1ccc(F)cc1 | 5.43% | -1.74% | – | -0.00915% | – | 1.51% | – |
| Clc1ccc(-c2nc3sccn3c2/C=N/OCc2ccc(Cl)c(Cl)c2)cc1 | 1.22% | – | 1.07% | 76.8% | -2.04% | 2.57% | inhibition ([7]; Compound Concentration 10.0 uM): 15.6%; inhibition ([8]; Compound Concentration 10.0 uM): 12% |
| Cc1c(Cc2ccc3ccccc3n2)c2cc(F)ccc2n1CC(=O)O | 9.88% | -6.14% | – | – | – | 30.2% | – |
| C[C@@H]1CCNC(=O)c2cc3ccc(C(=O)Nc4nc5ccccc5n4CCCN(C)C)cc3n21 | – | – | – | – | – | – | inhibition ([7]; Compound Concentration 1.0 uM): -2.92%; inhibition ([1]; Compound Concentration 1.0 uM): 3.44%; inhibition ([6]; Compound Concentration 1.0 uM): -5.96%; inhibition ([3]; Compound Concentration 1.0 uM): 5.43%; inhibition ([8]; Compound Concentration 1.0 uM): 22.7%; inhibition ([4]; Compound Concentration 1.0 uM): 37.8%; inhibition ([5]; Compound Concentration 1.0 uM): 1.38% |
